What is called EC50 is the concentration that produces a half-maximal response. A low value points to greater potency.

These results are taken from paper PMC2613953, “Characterisation of ATP analogues to cross-link and label P2X receptors” (Neuropharmacology, 2009).

Holding throughout (assay type): cell-based
The target in test [1] is T1, P2X1 receptor (Homo sapiens, UniProt P51575).
T1 construct: gene P2RX1; human P2X1 receptor stably expressed in HEK293 cells
T1 sequence (P51575 1-399): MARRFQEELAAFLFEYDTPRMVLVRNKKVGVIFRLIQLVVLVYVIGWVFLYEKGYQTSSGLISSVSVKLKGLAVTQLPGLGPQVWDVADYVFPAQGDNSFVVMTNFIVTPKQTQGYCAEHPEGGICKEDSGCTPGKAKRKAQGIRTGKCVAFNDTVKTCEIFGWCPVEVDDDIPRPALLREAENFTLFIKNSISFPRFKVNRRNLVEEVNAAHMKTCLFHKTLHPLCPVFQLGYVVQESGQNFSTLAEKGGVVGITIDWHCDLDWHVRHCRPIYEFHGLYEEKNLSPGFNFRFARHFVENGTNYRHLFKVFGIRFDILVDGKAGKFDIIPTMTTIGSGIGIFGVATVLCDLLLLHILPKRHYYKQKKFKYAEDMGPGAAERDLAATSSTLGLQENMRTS
The test can be described thus: whole cell patch clamp; partial agonist; UV cross-linking with ATP/suramin protection. On the technique in general: Patch clamp records ionic current or voltage across a cell membrane.

The target in test [2] is T1, P2X1 receptor. Put plainly: competition with radiolabelled photo-reactive ATP analogues; whole cell patch clamp agonism.
The target of test [3] is T2, P2X3 receptor (Rattus norvegicus, UniProt P49654).
T2 construct: gene P2rx3; rat P2X3 transiently expressed in HEK293 cells
T2 sequence (P49654 1-397): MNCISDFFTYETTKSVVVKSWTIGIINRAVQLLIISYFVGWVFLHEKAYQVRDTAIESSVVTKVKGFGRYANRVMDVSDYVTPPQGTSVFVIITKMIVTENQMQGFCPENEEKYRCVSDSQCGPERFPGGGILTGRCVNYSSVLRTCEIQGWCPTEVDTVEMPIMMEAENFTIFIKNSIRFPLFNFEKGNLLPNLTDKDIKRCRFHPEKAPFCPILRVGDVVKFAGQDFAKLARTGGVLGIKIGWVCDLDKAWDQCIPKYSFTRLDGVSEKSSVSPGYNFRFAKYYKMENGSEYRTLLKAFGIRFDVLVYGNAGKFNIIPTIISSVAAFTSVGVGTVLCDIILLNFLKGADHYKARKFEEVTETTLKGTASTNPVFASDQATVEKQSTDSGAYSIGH
The test can be described thus: whole cell patch clamp, agonist current at approximate EC50 concentration.

The target of test [4] is T3, P2X2 receptor (Rattus norvegicus, UniProt P49653).
T3 construct: gene P2rx2; rat P2X2 transiently expressed in HEK293 cells
T3 sequence (P49653 1-472): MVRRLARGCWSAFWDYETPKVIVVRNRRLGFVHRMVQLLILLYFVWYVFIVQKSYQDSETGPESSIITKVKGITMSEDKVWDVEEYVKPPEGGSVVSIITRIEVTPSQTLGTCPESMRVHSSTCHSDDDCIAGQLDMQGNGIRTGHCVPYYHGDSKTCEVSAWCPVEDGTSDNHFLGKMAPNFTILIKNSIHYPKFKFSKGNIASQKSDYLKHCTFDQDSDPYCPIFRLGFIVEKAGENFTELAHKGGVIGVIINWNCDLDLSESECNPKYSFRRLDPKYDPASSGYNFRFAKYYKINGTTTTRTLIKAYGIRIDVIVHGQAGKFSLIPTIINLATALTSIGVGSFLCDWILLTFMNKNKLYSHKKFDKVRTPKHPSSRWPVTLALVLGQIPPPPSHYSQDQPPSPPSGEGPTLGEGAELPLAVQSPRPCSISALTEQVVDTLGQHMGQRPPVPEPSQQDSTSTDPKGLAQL
The test is described as above.

Test [5] concerns the target T3, P2X2 receptor. Put plainly: UV photo-cross-linking, then whole cell patch clamp ([…] reduction of ATP current).
The target of test [6] is T2, P2X3 receptor. The test is described as above.
Test [7] concerns the target T1, P2X1 receptor. Put plainly: UV photo-cross-linking of radiolabelled analogue, immunoprecipitation and autoradiography with ATP competition; patch clamp agonism. The source says:
UV photo-cross-linking of radiolabelled analogue, immunoprecipitation and autoradiography with ATP competition; patch clamp agonism on P2X1 receptor | It confirms the identification of 2-azido ATP as a cross-linking compound which directly binds to the P2X1 receptor.

A further test addresses T4, P2X4 receptor (Homo sapiens, UniProt Q99571).
T4 construct: gene P2RX4; human P2X4 receptor stably expressed in HEK293 cells
T4 sequence (Q99571 1-388): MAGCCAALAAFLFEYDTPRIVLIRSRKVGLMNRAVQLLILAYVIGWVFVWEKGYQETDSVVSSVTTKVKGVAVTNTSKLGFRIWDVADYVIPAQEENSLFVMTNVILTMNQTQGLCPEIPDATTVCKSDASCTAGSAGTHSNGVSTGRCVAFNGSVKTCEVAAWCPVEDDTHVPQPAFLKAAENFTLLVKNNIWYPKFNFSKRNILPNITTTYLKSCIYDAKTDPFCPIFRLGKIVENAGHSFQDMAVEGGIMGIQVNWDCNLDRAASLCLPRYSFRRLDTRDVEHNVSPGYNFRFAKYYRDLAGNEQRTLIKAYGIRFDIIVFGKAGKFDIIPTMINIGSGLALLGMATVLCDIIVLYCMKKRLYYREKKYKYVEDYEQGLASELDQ
The test can be described thus: UV photo-cross-linking, then whole cell patch clamp ([…] reduction of ATP current).

For the compound `Nc1ncnc2c1ncn2[C@@H]1O[C@H](COP(=O)(O)OP(=O)(O)OP(=O)(O)O)[C@@H](OC(=O)c2ccc(C(=O)c3ccccc3)cc2)[C@H]1O` [C, 2′,3′-O-(4-benzoylbenzoyl)-ATP], the “whole cell patch clamp; partial agonist; UV cross-linking with ATP/suramin prote” value at P2X1 receptor [1] is listed as “These results suggest that the BzATP is acting to cross-link to the P2X1 receptor at the ATP binding site”.

On to `Nc1ncnc2c1ncn2[C@@H]1O[C@H](COP(=O)(O)OP(=O)(O)OP(=O)(O)O)[C@@H](O)[C@H]1O` [ATP], for which the figures for the concentration giving a half-maximal response (EC50) at P2X1 receptor [2], at P2X3 receptor [3] and on P2X2 receptor [4] were ~1 µM, ~ 1 μM and ~ 10 μM, respectively.

For `[N-]=[N+]=Nc1nc(N)c2ncn([C@@H]3O[C@H](COP(=O)(O)OP(=O)(O)OP(=O)(O)O)[C@@H](O)[C@H]3O)c2n1` [A, 2-azido ATP], the “% reduction” value on P2X2 receptor [5] was 80 % reduction; at P2X3 receptor [6] it was 83 % reduction; on P2X4 receptor it was 45 % reduction. Besides, on P2X1 receptor [7], the EC50 is ~3 µM.
